We go through three compounds from patent US8114453B2, “Synergistically heat stable oil media having eicosa pentanoic acid (EPA) and docosa hexaenoic acid (DHA)” (Recon Oil Industries Private Limited, priority 2005, dated 2012).

For data set [1] the following is noted: clinical trial, reported in background; cited from earlier work.
Data set [2] is described as follows: Fatty acid composition of oils before and after heating (air incorporated by stirring) by Gas Liquid Chromatography. As to conditions: from the fish oil source, heated with air incorporated. The class given is physicochemical. The source says: The heat stability of the highly unsaturated and easily oxidisable EPA/DHA in the oil blend of the invention, EPA/DHA from available sources of enriched fish oil was blended with groundnut oil in various proportions and the stability of the formulations tested is importantly to further confirm the unexpected and synergistic heat stability achieved by the oil formulation of the invention incorporating the EPA/DHA, oil blends with varying amount of active benefit agent EPA/DHA heated from ambient to upto 220 deg.C were tested. To maximize the process of deterioration, apart from heating at 180 deg.C, 200 deg.C and 220 deg. C., air was incorporated during heating by using a magnetic stirrer.

In the case of `CC/C=C\C/C=C\C/C=C\CCCCCCCC(=O)O` [ALNA, Alpha linolenic acid], the “Effect on triglyceride levels” value in data set [1] is reported as “not effective to reduce triglyceride levels”.

On to `CC/C=C\C/C=C\C/C=C\C/C=C\C/C=C\C/C=C\CCC(=O)O` [DHA, Docosa Hexaenoic Acid], for which the “Heat stability of the fatty acid” value in data set [2] is given as “heat stable even at temperatures of up to 220 deg. C”.

For `CC/C=C\C/C=C\C/C=C\C/C=C\C/C=C\CCCC(=O)O` [EPA, Eicosa Pentaenoic Acid], the “Heat stability of the fatty acid” value in data set [2] is “heat stable even at temperatures of up to 220 deg. C”.
